{"source": "ChEMBL document CHEMBL1629701", "about": "“Phase 2a randomized controlled trial of short-term activity, safety, and pharmacokinetics of a novel nonnucleoside reverse transcriptase inhibitor, RDEA806, in HIV-1-positive, antiretroviral-naive subjects” (Antimicrob Agents Chemother, 2010)", "key": {"[1]": {"system": "Human immunodeficiency virus 1", "experiment": "Antiviral activity against HIV1 infected in human assessed as change in CD4 expressing T-cell count from baseline at 1000 mg, po administered every day as five enteric-coated tablets followed by a single dose on day 8 measured on day 9 relative to pooled placebo control", "format": "functional"}, "[2]": {"system": "Human immunodeficiency virus 1", "experiment": "Antiviral activity against HIV1 infected in human assessed as change in CD8 expressing T-cell count from baseline at 1000 mg, po administered every day as five enteric-coated tablets followed by a single dose on day 8 measured on day 9 relative to pooled placebo control", "format": "functional"}, "[3]": {"experiment": "Tmax in fasted human at 400 mg, po every 12 hrs measured on day 8", "format": "ADME, organism-based", "conditions": "in vivo; call rule not given here"}, "[4]": {"experiment": "Cmax in fasted human plasma at 400 mg, po every 12 hrs measured on day 8", "format": "ADME, organism-based", "set-up": "dose 400 mg, route oral"}, "[5]": {"experiment": "Drug concentration at steady state in fasted human plasma at 400 mg, po every 12 hrs measured on day 8", "format": "ADME, organism-based", "conditions": "read-out: Drug uptake"}, "[6]": {"experiment": "Tmax in fasted human at 600 mg, po every 24 hrs measured on day 8", "format": "ADME, organism-based", "conditions": "in vivo"}, "[7]": {"experiment": "Cmax in fasted human plasma at 600 mg, po every 24 hrs measured on day 8", "format": "ADME, organism-based", "set-up": "dose 600 mg, route oral"}, "[8]": {"experiment": "Drug concentration at steady state in fasted human plasma 600 mg, po every 24 hrs measured on day 8", "format": "ADME, organism-based", "conditions": "read-out: Drug uptake"}, "[9]": {"experiment": "Tmax in fasted human at 800 mg, po every 24 hrs measured on day 8", "format": "ADME, organism-based", "conditions": "in vivo"}, "[10]": {"experiment": "Cmax in fasted human at 800 mg, po every 24 hrs measured on day 8", "format": "ADME, organism-based", "set-up": "dose 800 mg, route oral", "conditions": "in vivo"}, "[11]": {"experiment": "Drug concentration at steady state in fasted human plasma at 800 mg, po every 24 hrs measured on day 8", "format": "ADME, organism-based", "conditions": "read-out: Drug uptake"}, "[12]": {"experiment": "Tmax in fasted human at 1000 mg, po every 24 hrs measured on day 8", "format": "ADME, organism-based", "conditions": "in vivo"}, "[13]": {"experiment": "Cmax in fasted human at 1000 mg, po every 24 hrs measured on day 8", "format": "ADME, organism-based", "set-up": "dose 1000 mg, route oral", "conditions": "plasma"}, "[14]": {"experiment": "Drug concentration at steady state in fasted human plasma at 1000 mg, po every 24 hrs measured on day 8", "format": "ADME, organism-based", "conditions": "read-out: Drug uptake"}, "[15]": {"experiment": "Half life in fasted human at 600 mg, po every 24 hrs measured on day 8", "format": "ADME, organism-based", "conditions": "in vivo"}, "[16]": {"experiment": "Half life in fasted human at 400 mg, po every 24 hrs measured on day 8", "format": "ADME, organism-based", "conditions": "in vivo"}, "[17]": {"experiment": "AUC (24 hrs) in fasted human at 400 mg, po every 24 hrs measured on day 8", "format": "ADME, organism-based", "set-up": "time < 24 hr, dose 400 mg, route oral", "conditions": "plasma"}, "[18]": {"experiment": "AUC (24 hrs) in fasted human at 1000 mg, po every 24 hrs measured on day 8", "format": "ADME, organism-based", "set-up": "dose 1000 mg, time < 24 hr, route oral", "conditions": "plasma"}, "[19]": {"system": "Homo sapiens", "experiment": "Reduction in uric acid level in healthy human serum at 400 mg, po BID", "format": "functional"}, "[20]": {"system": "Homo sapiens", "experiment": "Reduction in uric acid level in healthy human serum at 600 mg, po administered every day", "format": "functional"}, "[21]": {"system": "Homo sapiens", "experiment": "Reduction in uric acid level in healthy human serum at 800 mg, po administered every day", "format": "ADME, organism-based", "conditions": "in vivo"}, "[22]": {"system": "Homo sapiens", "experiment": "Reduction in uric acid level in healthy human serum at 1000 mg, po administered every day", "format": "ADME, organism-based", "conditions": "in vivo"}, "[23]": {"target": "T1, Solute carrier family 22 member 12 (Homo sapiens, UniProt Q96S37)", "T1 sequence (Q96S37 whole entry)": "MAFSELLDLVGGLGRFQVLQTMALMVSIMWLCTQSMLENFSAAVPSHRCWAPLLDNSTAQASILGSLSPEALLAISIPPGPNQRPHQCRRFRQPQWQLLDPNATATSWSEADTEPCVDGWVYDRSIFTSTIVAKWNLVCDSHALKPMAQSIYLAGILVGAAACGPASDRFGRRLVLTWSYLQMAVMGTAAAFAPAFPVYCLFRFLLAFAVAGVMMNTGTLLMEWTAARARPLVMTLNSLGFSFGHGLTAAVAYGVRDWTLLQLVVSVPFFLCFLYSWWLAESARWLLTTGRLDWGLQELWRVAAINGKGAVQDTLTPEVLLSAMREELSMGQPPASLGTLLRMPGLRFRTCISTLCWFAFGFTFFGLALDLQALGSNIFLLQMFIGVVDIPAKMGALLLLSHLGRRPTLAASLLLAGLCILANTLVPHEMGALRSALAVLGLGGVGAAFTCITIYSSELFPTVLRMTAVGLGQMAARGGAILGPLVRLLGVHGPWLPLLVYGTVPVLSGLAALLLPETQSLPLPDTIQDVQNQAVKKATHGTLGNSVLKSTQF", "experiment": "Inhibition of human URAT-1 assessed as increase in renal uric acid excretion", "set-up": "species or system Kidney"}, "[24]": {"system": "Human immunodeficiency virus 1", "experiment": "Antiviral activity against HIV1", "format": "functional, organism-based"}, "[25]": {"experiment": "Tmax in fasted human plasma at 50 to 300 mg", "format": "ADME, organism-based"}, "[26]": {"experiment": "Tmax in fasted human plasma at 600 mg", "format": "ADME, organism-based"}, "[27]": {"experiment": "Cmax in human plasma at 300 mg administered as multiple doses, BID", "format": "ADME, organism-based", "set-up": "dose 300 mg"}, "[28]": {"experiment": "Cmax in human plasma at 500 mg administered as multiple doses, BID", "format": "ADME, organism-based", "set-up": "dose 500 mg"}, "[29]": {"experiment": "AUC (0 to 12 hrs) in human plasma at 300 mg administered as multiple doses, BID", "format": "ADME, organism-based", "set-up": "time < 12 hr, dose 300 mg"}, "[30]": {"experiment": "AUC (0 to 12 hrs) in human plasma at 500 mg administered as multiple doses, BID", "format": "ADME, organism-based", "set-up": "dose 500 mg, time < 12 hr"}, "[31]": {"experiment": "Plasma protein binding in human", "format": "ADME, cell-free", "conditions": "read-out: PPB"}, "[32]": {"experiment": "Plasma protein binding in rat", "format": "ADME, cell-free", "conditions": "read-out: PPB"}}, "data": [{"smiles": "O=C(CSc1nnc(Br)n1-c1ccc(C2CC2)c2ccccc12)Nc1ccc(C(=O)O)cc1Cl", "values": [{"measurement": "Activity", "setting": "[1]", "value": "90.48 /mm3"}, {"measurement": "Activity", "setting": "[2]", "value": "71.04 /mm3"}, {"measurement": "Tmax", "setting": "[3]", "value": 1.5, "unit": "h"}, {"measurement": "Cmax", "setting": "[4]", "value": 2990, "unit": "ng/mL"}, {"measurement": "concentration at 12 h", "setting": "[5]", "value": 505, "unit": "ng/mL"}, {"measurement": "Tmax", "setting": "[6]", "value": 2, "unit": "h"}, {"measurement": "Cmax", "setting": "[7]", "value": 2420, "unit": "ng/mL"}, {"measurement": "concentration at 24 h", "setting": "[8]", "value": 276, "unit": "ng/mL"}, {"measurement": "Tmax", "setting": "[9]", "value": 3, "unit": "h"}, {"measurement": "Cmax", "setting": "[10]", "value": 1910, "unit": "ng/mL"}, {"measurement": "concentration at 24 h", "setting": "[11]", "value": 310, "unit": "ng/mL"}, {"measurement": "Tmax", "setting": "[12]", "value": 3, "unit": "h"}, {"measurement": "Cmax", "setting": "[13]", "value": 3700, "unit": "ng/mL"}, {"measurement": "concentration at 24 h", "setting": "[14]", "value": 515, "unit": "ng/mL"}, {"measurement": "half-life", "setting": "[15]", "value": 7.09, "unit": "h"}, {"measurement": "half-life", "setting": "[16]", "value": 11.3, "unit": "h"}, {"measurement": "AUC at 24 h", "setting": "[17]", "value": 12400, "unit": "ng·h/mL"}, {"measurement": "AUC at 24 h", "setting": "[18]", "value": 17400, "unit": "ng·h/mL"}, {"measurement": "Activity", "setting": "[19]", "value": 88, "unit": "µmol/L"}, {"measurement": "Activity", "setting": "[20]", "value": 81, "unit": "µmol/L"}, {"measurement": "Activity", "setting": "[21]", "value": 58, "unit": "µmol/L"}, {"measurement": "Activity", "setting": "[22]", "value": 88, "unit": "µmol/L"}, {"measurement": "Activity", "setting": "[23]", "value": "Active"}, {"measurement": "EC50", "setting": "[24]", "value": 1.7, "unit": "ng/mL"}, {"measurement": "Tmax", "setting": "[25]", "value": 1.25, "unit": "h"}, {"measurement": "Tmax", "setting": "[26]", "value": 4.92, "unit": "h"}, {"measurement": "Cmax", "setting": "[27]", "value": 667, "unit": "ng/mL"}, {"measurement": "Cmax", "setting": "[28]", "value": 746, "unit": "ng/mL"}, {"measurement": "AUC at 12 h", "setting": "[29]", "value": 3160, "unit": "ng·h/mL"}, {"measurement": "AUC at 12 h", "setting": "[30]", "value": 3770, "unit": "ng·h/mL"}, {"measurement": "fraction unbound", "setting": "[31]", "value": "< 0.01"}, {"measurement": "fraction unbound", "setting": "[32]", "value": "< 0.01"}]}]}
